In patent US9789116B2, “Compositions and methods of modulating short-chain dehydrogenase activity” (CASE WESTERN RESERVE UNIVERSITY, priority 2013, dated 2017):

Legend:
Hepatocyte stability = assay type: in vitro ADME; details: hepatocytes in culture; printed 'Stable > couple hrs' over two lines
Procedure: (§1) Time to inhibition refers to the time needed to inhibit the generation of NADH by 15-PGDH from the moment with drug is added into the reaction mix. Delta Tm refers to the shift in melting temperature of recombinant 15-PGDH in the presence of drug (with cofactor NADH also present). Concentration of Full Cell Line Reporter Induction refers to the concentration of drug that needs to be added to reporter cell line to achieve maximal induction of the 15-PGDH-luciferase gene fusion reporter cassette, as measured by luciferase assays. Hepatocyte stability refers to the half-life of compound in the presence of hepatocytes in culture. Toxicity refers to the concentration of compound needed to decrease cell numbers in a cell culture assay.

cell culture = assay: Toxicity in a cell culture assay (decrease of cell numbers); assay type: cell-based; details: concentration needed to decrease cell numbers in a cell culture assay
Procedure: as §1

A549 cells = assay: Cellular toxicity on A549 cells by CellTiter-Glo; assay type: cell-based; details: 24 hours, concentrations of up to 10 μM
Procedure: FIGS. 38(A-C) show assays of cellular toxicity on A549 cells at 24 hours of 15-PGDH inhibitors as assayed by CellTiter-Glo measurement.

C57BL/6J mice = assay: Bone marrow of C57BL/6J mice treated in vivo; set-up: species or system mouse; details: IP 5 mg/kg or 20 mg/kg
Source text: Experimental conditions are noted on the figure.

C57BL/6J female mice [1] = assay: Survival after whole body irradiation; assay type: in vivo, mouse; details: for Number of mice surviving: cohort of 3
FVB mice = assay: Liver regeneration after partial hepatectomy, FVB mice; assay type: in vivo, mouse
C57BL/6J female mice [2] = assay: Survival following acetaminophen (Tylenol) overdose; assay type: in vivo, mouse;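 also: control animals received vehicle only, given on a once or twice daily schedule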
NSG mice = assay: Homing of human umbilical cord blood buffy coat cells in NSG mice; assay type: in vivo, mouse
Procedure: FIG. 93 illustrates a schema of an experiment in which immune deficient NSG mice are lethally irradiated (IR) and 12 hours later receive a transplant with CFSE dye labeled buffy coat cells from human umbilical cord blood (UCB), and number of transplanted cells that home and survive in the bone marrow of the recipient mice are then determined by FACS at 16 hours post-transplant. In different arms of the experiment mice are treated with vehicle or with SW033291. Drugs are administered following radiation, following the transplant, and again at 8 hours after the transplant.

CCCC[S+]([O-])c1sc2nc(-c3cccs3)cc(-c3ccccc3)c2c1N (centres unmarked) [SW033291, 2-(butylsulfinyl)-4-phenyl-6-(thiophen-2-yl)thieno[2,3-b]pyridin-3-amine]
Hepatocyte stability (Hepatocyte stability): couple hrs | Toxicity (cell culture): >10 µM | effect on CellTitre-Glo levels (A549 cells): No effect | percent of Sca1+/c-Kit+ cells in lineage negative (SKL) cells (C57BL/6J mice): unchanged | Number of mice surviving (C57BL/6J female mice [1]; 7 Gy, 5 mg/kg IP daily for 7 doses, Day 5): 3 | Number of mice surviving (C57BL/6J female mice [1]; 7 Gy, 5 mg/kg IP daily for 7 doses, Day 6): 3 | Number of mice surviving (C57BL/6J female mice [1]; 7 Gy, 5 mg/kg IP daily for 7 doses, Day 7): 3 | Number of mice surviving (C57BL/6J female mice [1]; 7 Gy, 5 mg/kg IP daily for 7 doses, Day 8): 3 | Number of mice surviving (C57BL/6J female mice [1]; 7 Gy, 5 mg/kg IP daily for 7 doses, Day 9): 3 | Number of mice surviving (C57BL/6J female mice [1]; 7 Gy, 5 mg/kg IP daily for 7 doses, Day 10): 3 | Number of mice surviving (C57BL/6J female mice [1]; 7 Gy, 5 mg/kg IP daily for 7 doses, Day 11): 3 | Number of mice surviving (C57BL/6J female mice [1]; 7 Gy, 5 mg/kg IP daily for 7 doses, Day 12): 3 | Number of mice surviving (C57BL/6J female mice [1]; 7 Gy, 5 mg/kg IP daily for 7 doses, Day 13): 3 | Number of mice surviving (C57BL/6J female mice [1]; 7 Gy, 5 mg/kg IP daily for 7 doses, Day 14): 3 | Number of mice surviving (C57BL/6J female mice [1]; 7 Gy, 5 mg/kg IP daily for 7 doses, Day 15): 3 | Appearance of mice (C57BL/6J female mice [1]; 7 Gy, Day 25, printed 'Looks Healthy' over two lines): Healthy | Number of mice surviving (C57BL/6J female mice [1]; 9 Gy, 5 mg/kg IP daily for 7 doses, Day 5): 3 | Number of mice surviving (C57BL/6J female mice [1]; 9 Gy, 5 mg/kg IP daily for 7 doses, Day 6): 3 | Number of mice surviving (C57BL/6J female mice [1]; 9 Gy, 5 mg/kg IP daily for 7 doses, Day 7): 3 | Number of mice surviving (C57BL/6J female mice [1]; 9 Gy, 5 mg/kg IP daily for 7 doses, Day 8): 3 | Number of mice surviving (C57BL/6J female mice [1]; 9 Gy, 5 mg/kg IP daily for 7 doses, Day 9): 3 | Number of mice surviving (C57BL/6J female mice [1]; 9 Gy, 5 mg/kg IP daily for 7 doses, Day 10): 3 | Number of mice surviving (C57BL/6J female mice [1]; 9 Gy, 5 mg/kg IP daily for 7 doses, Day 11): 3 | Number of mice surviving (C57BL/6J female mice [1]; 9 Gy, 5 mg/kg IP daily for 7 doses, Day 12): 2 | Number of mice surviving (C57BL/6J female mice [1]; 9 Gy, 5 mg/kg IP daily for 7 doses, Day 13): 2 | Number of mice surviving (C57BL/6J female mice [1]; 9 Gy, 5 mg/kg IP daily for 7 doses, Day 14): 1 | Number of mice surviving (C57BL/6J female mice [1]; 9 Gy, 5 mg/kg IP daily for 7 doses, Day 15): 0 | longer survival than vehicle control (C57BL/6J female mice [1]; 11Gy, 5 mg/kg IP daily for 7 doses): 48 h | Number of mice surviving (C57BL/6J female mice [1]; 11 Gy, 5 mg/kg IP daily for 7 doses (Table 6), Day 5): 3 | Number of mice surviving (C57BL/6J female mice [1]; 11 Gy, 5 mg/kg IP daily for 7 doses (Table 6), Day 6): 3 | Number of mice surviving (C57BL/6J female mice [1]; 11 Gy, 5 mg/kg IP daily for 7 doses (Table 6), Day 7): 3 | Number of mice surviving (C57BL/6J female mice [1]; 11 Gy, 5 mg/kg IP daily for 7 doses (Table 6), Day 8): 3 | Number of mice surviving (C57BL/6J female mice [1]; 11 Gy, 5 mg/kg IP daily for 7 doses (Table 6), Day 9): 2 | Number of mice surviving (C57BL/6J female mice [1]; 11 Gy, 5 mg/kg IP daily for 7 doses (Table 6), Day 10): 0 | Number of mice surviving (C57BL/6J female mice [1]; 11 Gy, 1 dose/daily for 7 days (Table 7), Day 5): 3 | Number of mice surviving (C57BL/6J female mice [1]; 11 Gy, 1 dose/daily for 7 days (Table 7), Day 6): 3 | Number of mice surviving (C57BL/6J female mice [1]; 11 Gy, 1 dose/daily for 7 days (Table 7), Day 7): 3 | Number of mice surviving (C57BL/6J female mice [1]; 11 Gy, 1 dose/daily for 7 days (Table 7), Day 8): 2 | Number of mice surviving (C57BL/6J female mice [1]; 11 Gy, 1 dose/daily for 7 days (Table 7), Day 9): 1 | Number of mice surviving (C57BL/6J female mice [1]; 11 Gy, 1 dose/daily for 7 days (Table 7), Day 10): 0 | Number of mice surviving (C57BL/6J female mice [1]; 11 Gy, 1 dose/daily, continuous every day, Day 5): 3 | Number of mice surviving (C57BL/6J female mice [1]; 11 Gy, 1 dose/daily, continuous every day, Day 6): 3 | Number of mice surviving (C57BL/6J female mice [1]; 11 Gy, 1 dose/daily, continuous every day, Day 7): 3 | Number of mice surviving (C57BL/6J female mice [1]; 11 Gy, 1 dose/daily, continuous every day, Day 8): 3 | Number of mice surviving (C57BL/6J female mice [1]; 11 Gy, 1 dose/daily, continuous every day, Day 9): 2 | Number of mice surviving (C57BL/6J female mice [1]; 11 Gy, 1 dose/daily, continuous every day, Day 10): 0 | Number of mice surviving (C57BL/6J female mice [1]; 11 Gy, 7 days, 2 dose daily, Day 5): 3 | Number of mice surviving (C57BL/6J female mice [1]; 11 Gy, 7 days, 2 dose daily, Day 6): 3 | Number of mice surviving (C57BL/6J female mice [1]; 11 Gy, 7 days, 2 dose daily, Day 7): 3 | Number of mice surviving (C57BL/6J female mice [1]; 11 Gy, 7 days, 2 dose daily, Day 8): 3 | Number of mice surviving (C57BL/6J female mice [1]; 11 Gy, 7 days, 2 dose daily, Day 9): 2 | Number of mice surviving (C57BL/6J female mice [1]; 11 Gy, 7 days, 2 dose daily, Day 10): 0 | longer survival than vehicle control, on average (C57BL/6J female mice [1]; 11Gy, any of three 5 mg/kg dosing schedules): 1 to 2 days | BrdU positive (S-phase) cells in liver (FVB mice; post-operative day 2): clear increase in numbers of BrdU positive cells | increase in median S-phase cells (FVB mice; post-operative day 2, P<0.05): greater than 2 fold | greater liver weight than control mice (FVB mice; post-operative day 7): approximately 25% | Number of mice surviving (C57BL/6J female mice [2]; 5 mg/kg 1 dose/daily, first dose immediately after Tylenol, 16 hr, cohort of 6): 6 | Number of mice surviving (C57BL/6J female mice [2]; 5 mg/kg 1 dose/daily, first dose immediately after Tylenol, 24 hrs, cohort of 6): 6 | Number of mice surviving (C57BL/6J female mice [2]; 5 mg/kg 2 dose/daily, first dose immediately after Tylenol, 16 hr, cohort of 6): 6 | Number of mice surviving (C57BL/6J female mice [2]; 5 mg/kg 2 dose/daily, first dose immediately after Tylenol, 24 hrs, cohort of 6): 6 | Number of mice surviving (C57BL/6J female mice [2]; 5 mg/kg 2 dose/daily, first dose immediately after Tylenol, 48 hrs, cohort of 6): 3 | Number of mice surviving (C57BL/6J female mice [2]; 5 mg/kg 2 dose/daily, first dose immediately after Tylenol, 64 hrs, cohort of 6): 3 | Number of mice surviving (C57BL/6J female mice [2]; 5 mg/kg 2 dose/daily, first dose immediately after Tylenol, 72 hrs, cohort of 6): 3 | Number of mice surviving (C57BL/6J female mice [2]; 5 mg/kg 2 dose/daily, first dose immediately after Tylenol, 88 hr, cohort of 6): 3 | Number of mice surviving (C57BL/6J female mice [2]; 5 mg/kg 2 dose/daily, first dose immediately after Tylenol, 96 hr, cohort of 6): 3 | Number of mice surviving (C57BL/6J female mice [2]; 5 mg/kg 2 dose/daily, first dose immediately after Tylenol, 112 hr, cohort of 6): 3 | Number of mice surviving (C57BL/6J female mice [2]; 5 mg/kg 2 dose/daily, first dose immediately after Tylenol, 120 hr, cohort of 6): 3 | survival versus control mice (C57BL/6J female mice [2]; 5 mg/kg IP begun immediately following acetaminophen, once or twice daily, through 120 hours): No difference | protection from acetaminophen lethality (C57BL/6J female mice [2]; 5 mg/kg IP bid beginning 48 hours prior to acetaminophen, 9 doses): protects from the lethal hepatotoxicity of acetaminophen | Number of mice surviving (C57BL/6J female mice [2]; 5 mg/kg bid from 3 hours prior to acetaminophen, 6 doses, 16 hr, cohort of 6): 6 | Number of mice surviving (C57BL/6J female mice [2]; 5 mg/kg bid from 3 hours prior to acetaminophen, 6 doses, 24 hrs, cohort of 6): 5 | Number of mice surviving (C57BL/6J female mice [2]; 5 mg/kg bid from 3 hours prior to acetaminophen, 6 doses, 48 hrs, cohort of 6): 3 | Number of mice surviving (C57BL/6J female mice [2]; 5 mg/kg bid from 3 hours prior to acetaminophen, 6 doses, 64 hrs, cohort of 6): 3 | Number of mice surviving (C57BL/6J female mice [2]; 5 mg/kg bid from 3 hours prior to acetaminophen, 6 doses, 72 hrs, cohort of 6): 3 | Number of mice surviving (C57BL/6J female mice [2]; 5 mg/kg bid from 3 hours prior to acetaminophen, 6 doses, 88 hr, cohort of 6): 3 | Number of mice surviving (C57BL/6J female mice [2]; 5 mg/kg bid from 3 hours prior to acetaminophen, 6 doses, 96 hr, cohort of 6): 3 | Number of mice surviving (C57BL/6J female mice [2]; 5 mg/kg bid from 3 hours prior to acetaminophen, 6 doses, 112 hr, cohort of 6): 3 | Number of mice surviving (C57BL/6J female mice [2]; 5 mg/kg bid from 3 hours prior to acetaminophen, 6 doses, 120 hr, cohort of 6): 3 | Number of mice surviving (C57BL/6J female mice [2]; 5 mg/kg bid from 48 hours prior to acetaminophen, 9 doses, 16 hr, cohort of 12): 12 | Number of mice surviving (C57BL/6J female mice [2]; 5 mg/kg bid from 48 hours prior to acetaminophen, 9 doses, 24 hrs, cohort of 12): 12 | Number of mice surviving (C57BL/6J female mice [2]; 5 mg/kg bid from 48 hours prior to acetaminophen, 9 doses, 40 hrs, cohort of 12): 11 | Number of mice surviving (C57BL/6J female mice [2]; 5 mg/kg bid from 48 hours prior to acetaminophen, 9 doses, 48 hrs, cohort of 12): 10 | Number of mice surviving (C57BL/6J female mice [2]; 5 mg/kg bid from 48 hours prior to acetaminophen, 9 doses, 64 hrs, cohort of 12): 10 | Number of mice surviving (C57BL/6J female mice [2]; 5 mg/kg bid from 48 hours prior to acetaminophen, 9 doses, 72 hrs, cohort of 12): 10 | Number of mice surviving (C57BL/6J female mice [2]; 5 mg/kg bid from 48 hours prior to acetaminophen, 9 doses, 88 hr, cohort of 12): 10 | Number of mice surviving (C57BL/6J female mice [2]; 5 mg/kg bid from 48 hours prior to acetaminophen, 9 doses, 96 hr, cohort of 12): 10 | Number of mice surviving (C57BL/6J female mice [2]; 5 mg/kg bid from 48 hours prior to acetaminophen, 9 doses, 112 hr, cohort of 12): 10 | Number of mice surviving (C57BL/6J female mice [2]; 5 mg/kg bid from 48 hours prior to acetaminophen, 9 doses, 120 hr, cohort of 12): 10 | increase in numbers of homed human cells in recipient bone marrow (NSG mice): ~2 fold
